Data taken from US20230416329A1, “A PEPTIDE WITH DISULFIDE BONDS AND INHIBITORY ACTIVITY AGAINST SERINE PROTEASES, DERIVED HYBRID PEPTIDES THEREOF, AND USES THEREOF” (INSTITUTE OF MATERIA MEDICA , CHINESE ACADEMY OF MEDICAL …, priority 2020, published 2023).
Like-named read-outs stand apart in the source and are kept apart here. Values belong to the molecule of their own block, whether it stands above or below them. Bridge positions count the residues as written; N and C are the ends. Peptide text beside a SMILES is read from it.

Molecular target: porcine pancreatic elastase (Sus scrofa, UniProt P00772)
Experiment: Elastase inhibitory activity of peptides (AAApNA hydrolysis; IC50, Ki, residual activity)
Format: biochemical
Details: for IC50 / Residual activity of elastase: elastase 0.5 μM, AAApNA 1 mM
Method: The inhibition constants of various synthetic active peptide inhibitors (molecular scaffolds) against seine proteases were measured. The substrates N-succinyl-Ala-Ala-Pro-Phe-p-nitroaniline (AAPFpNA), Nα—Benzoyl-L-arginine-4-nitroaniline hydrochloride (BApNA) and N-succinyl-[…] (AAApNA) are used in competitive binding reaction to determine the inhibitory activities against α-chymotrypsin, bovine trypsin, and porcine pancreatic elastase, respectively. Experiments for α-chymotrypsin and bovine trypsin inhibition were measured in 20 mM CaCl2, 50 mM Tris-HCl buffer (pH 7.8), and that for porcine elastase inhibition was measured in 50 mM Tris-HCl buffer (pH 8.0). The concentration of the peptide was measured using optical density (OD) at 280 nm. The Michaelis constant (Km) of the enzyme hydrolysis substrate is calculated from the initial rate of substrate hydrolysis at 405 nm. The absorbance value of the substrate was measured at 405 nm after complete hydrolysis. All data were processed using nonlinear regression.
• (1) Added a total 198 μL of reaction buffer (20 mM CaCl2, 50 mM Tris-HCl (pH 8.0)) into the 96 well plate, followed by preheating at 37° C. for 15 min. Then added 2 μL of different concentrations of substrates (pNA, dissolved in DMSO), and mixed by centrifugation at 500 rpm for 1 min. Finally, the plate was incubated at 37° C. for 30 min, and the absorbance value at 405 nm was measured. In the 200 μL of reaction system, the final concentrations of pNA were 0, 0.025, 0.05, 0.075, 0.1, 0.125, 0.15, 0.175, and 0.2 mM, respectively. Make three repetitions for each concentration and plot the OD405 m value with pNA concentration to obtain the standard curve. • (2) Added a total 190 μL of reaction buffer (20 mM CaCl2, 50 mM Tris-HCl (pH 8.0)) and 8 μL of 4.375 μM elastase into the 96 well plate, followed by preheating at 37° C. for 5 min. Then added 2 μL of different concentrations of substrates (AAApNA, dissolved in DMSO), and mixed by centrifugation at 500 rpm for 1 min. Finally, the plate was incubated at 37° C. for 30 min, and the absorbance value at 405 nm was measured. In the 200 μL of reaction system, the final concentrations of AAApNA were 0, 0.125, 0.166, 0.2, 0.25, 0.33, 0.6, 0.75, and 1.25 mM, respectively. Make three repetitions for each concentration and plot the OD405 nm value with time to obtain the corresponding curve. Divide the slope of the curve by the slope of the standard curve and the enzyme concentration to obtain the initial velocity V0 (mM/(min*mM protein). Plot the initial velocity V0 with the concentration of substrate AAApNA using Prism software, and the Michaelis constant Km value of elastase hydrolyzing AAApNA was obtained.
• (1) Added a total 190 μL of different concentrations of peptides (ECs) against elastase and reaction buffer (20 mM CaCl2, 50 mM Tris-HCl buffer (pH 8.0)) into the pre-cold 96 well plate, followed by preheating at 37° C. for 5 min and centrifugated at 500 rpm for 1 min and allowed to stand for 4 minutes. Then added 8 μL of 12.5 μM elastase and incubated at 37° C. for 10 min and centrifugated at 500 rpm for 1 min and allowed to stand for 9 minutes. Finally, added 2 μL of 100 mM AAApNA, and mixed by centrifugation at 500 rpm for 1 min. The plate was incubated at 37° C. for 60 min, and the absorbance value at 405 nm was measured. Three repetitions were made, and only reaction buffer and substrate were added in the blank control as the minimum absorption value (Min OD405 nm); Only reaction buffer, enzyme and substrate were added in the negative control as the maximum absorption value (Max OD405 nm). • (2) In the 200 μL of reaction system, the final concentrations of elastase and AAApNA were 0.5 μM and 1 mM, respectively. • (3) Data statistics
Residual activity of enzyme (%)=(1−(Max OD405 nm−Sample OD405 nm)/(Max OD405 nm−Min OD405 nm))*100 […]

porcine pancreatic elastase, sequence (P00772 27-266): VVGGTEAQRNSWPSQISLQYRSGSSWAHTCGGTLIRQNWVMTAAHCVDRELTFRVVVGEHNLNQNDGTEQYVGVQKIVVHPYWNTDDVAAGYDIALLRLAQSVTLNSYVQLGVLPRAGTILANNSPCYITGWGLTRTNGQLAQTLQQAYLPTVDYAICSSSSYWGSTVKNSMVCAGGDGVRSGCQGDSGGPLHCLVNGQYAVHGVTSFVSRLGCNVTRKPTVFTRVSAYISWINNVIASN

SMILES: CC[C@H](C)[C@@H]1NC(=O)[C@@H]2CCCN2C(=O)[C@@H]2CCCN2C(=O)[C@H]([C@@H](C)CC)NC(=O)[C@H](CO)NC(=O)[C@H](C)NC(=O)[C@H]([C@@H](C)O)NC(=O)[C@H](CCC(=O)O)NC(=O)[C@H](CCCNC(=N)N)NC(=O)CNC(=O)[C@@H](N)CSSC[C@@H](C(=O)N[C@@H](CCC(N)=O)C(=O)O)NC1=O [EC8] (H-CGRETASIPPICQ-OH; disulfide 1-12; N-terminus and C-terminus assumed)
- IC50: > 50 µM

SMILES: CC[C@H](C)[C@@H]1NC(=O)[C@H](CO)NC(=O)[C@H](C)NC(=O)[C@H]([C@@H](C)O)NC(=O)[C@H](CCC(=O)O)NC(=O)[C@H](CCCNC(=N)N)NC(=O)CNC(=O)[C@@H](N)CSSC[C@@H](C(=O)N[C@@H](CCCCN)C(=O)O)NC(=O)[C@H](CCC(N)=O)NC(=O)[C@@H]2CCCN2C(=O)[C@@H]2CCCN2C1=O [EC9] (H-CGRETASIPPQCK-OH; disulfide 1-12; N-terminus and C-terminus assumed)
- IC50: > 50 µM

SMILES: CC[C@H](C)[C@@H]1NC(=O)[C@H](CO)NC(=O)[C@H](C)NC(=O)[C@H]([C@@H](C)O)NC(=O)[C@H](CCC(=O)O)NC(=O)[C@H](CCCNC(=N)N)NC(=O)CNC(=O)[C@@H](N)CSSC[C@@H](C(=O)O)NC(=O)[C@H](CCCCN)NC(=O)[C@H](CCC(N)=O)NC(=O)[C@@H]2CCCN2C(=O)[C@@H]2CCCN2C1=O [EC10] (H-CGRETASIPPQKC-OH; disulfide 1-13; N-terminus and C-terminus assumed)
- IC50: > 50 µM

SMILES: CC[C@H](C)[C@@H]1NC(=O)[C@H](CO)NC(=O)[C@H](C)NC(=O)[C@H]([C@@H](C)O)NC(=O)[C@H](CCC(=O)O)NC(=O)[C@H](CCCNC(=N)N)NC(=O)CNC(=O)[C@@H](N)CSSC[C@@H](C(=O)O)NC(=O)CNC(=O)[C@H](CCCCN)NC(=O)[C@H](CCC(N)=O)NC(=O)[C@@H]2CCCN2C(=O)[C@@H]2CCCN2C1=O [EC11] (H-CGRETASIPPQKGC-OH; disulfide 1-14; N-terminus and C-terminus assumed)
- IC50: > 50 µM

SMILES: CC[C@H](C)[C@@H]1NC(=O)[C@H](CO)NC(=O)[C@H](C)NC(=O)[C@H]([C@@H](C)O)NC(=O)[C@H](C)NC(=O)[C@H](Cc2ccc(O)cc2)NC(=O)CNC(=O)[C@@H](N)CSSC[C@@H](C(=O)N[C@@H](Cc2ccc(O)cc2)C(=O)O)NC(=O)[C@H](CCC(N)=O)NC(=O)[C@@H]2CCCN2C(=O)[C@@H]2CCCN2C1=O [EC15] (H-CGYATASIPPQCY-OH; disulfide 1-12; N-terminus and C-terminus assumed)
- IC50: > 50 µM

SMILES: CC[C@H](C)[C@@H]1NC(=O)[C@@H]2CCCN2C(=O)[C@@H]2CCCN2C(=O)[C@H]([C@@H](C)CC)NC(=O)[C@H](CO)NC(=O)[C@H](C)NC(=O)[C@H]([C@@H](C)O)NC(=O)[C@H](C)NC(=O)[C@H](CC(C)C)NC(=O)CNC(=O)CNC(=O)[C@@H](N)CSSC[C@@H](C(=O)N[C@@H](CCC(N)=O)C(=O)O)NC1=O [EC16] (H-CGGLATASIPPICQ-OH; disulfide 1-13; N-terminus and C-terminus assumed)
- IC50: > 50 µM

SMILES: CC[C@H](C)[C@@H]1NC(=O)[C@@H]2CCCN2C(=O)[C@@H]2CCCN2C(=O)[C@H]([C@@H](C)CC)NC(=O)[C@H](CO)NC(=O)[C@H](CC(C)C)NC(=O)[C@H]([C@@H](C)O)NC(=O)[C@H](C)NC(=O)[C@H](CC(C)C)NC(=O)CNC(=O)CNC(=O)[C@@H](N)CSSC[C@@H](C(=O)N[C@@H](CCC(N)=O)C(=O)O)NC1=O [EC17] (H-CGGLATLSIPPICQ-OH; disulfide 1-13)
- IC50: > 50 µM

More lines, main results first:

- IC50: 0.4 µM
- Residual activity of elastase (peptide 0.001 μM): 98.8 ± 1.1%
- Residual activity of elastase (peptide 0.01 μM): 97.8 ± 1.0%
- Residual activity of elastase (peptide 0.06 μM): 98.2 ± 2.1%
- Residual activity of elastase (peptide 0.25 μM): 72.2 ± 5.9%
- Residual activity of elastase (peptide 0.3 μM): 59.9 ± 3.2%
- Residual activity of elastase (peptide 0.75 μM): 25.1 ± 3.6%
- Residual activity of elastase (peptide 1 μM): 12.7 ± 1.0%
- Residual activity of elastase (peptide 10 μM): 1.3 ± 0.1%
- Residual activity of elastase (peptide 100 μM): 0.2 ± 0.0%
- Residual activity of elastase (peptide 1000 μM): 0.3 ± 0.0%
- Ki (read-out: Ki against elastase): 0.11 µM
SMILES: CC[C@H](C)[C@@H]1NC(=O)[C@@H]2CCCN2C(=O)[C@@H]2CCCN2C(=O)[C@H]([C@@H](C)CC)NC(=O)[C@H](CO)NC(=O)[C@H](C)NC(=O)[C@H]([C@@H](C)O)NC(=O)[C@@H](NC(=O)[C@@H](N)CC(C)C)CSSC[C@@H](C(=O)N[C@@H](CCC(N)=O)C(=O)O)NC1=O [EC12] (H-LCTASIPPICQ-OH; disulfide 2-10; N-terminus and C-terminus assumed)
- inhibitory activity against elastase (in words): better inhibitory activity against Elastase

- IC50: > 50 µM
SMILES: CC[C@H](C)[C@H](N)C(=O)N[C@H]1CSSC[C@@H](C(=O)N[C@H](C(=O)O)C(C)C)NC(=O)[C@H](CCC(N)=O)NC(=O)[C@H](C)NC(=O)[C@@H]2CCCN2C(=O)[C@H]([C@@H](C)CC)NC(=O)[C@H](CO)NC(=O)[C@H](CC(C)C)NC(=O)[C@H]([C@@H](C)O)NC1=O [EC13] (H-ICTLSIPAQCV-OH; disulfide 2-10; N-terminus and C-terminus assumed)

- Residual activity of elastase (peptide 0.001 μM): 99.2 ± 2.0%
- Residual activity of elastase (peptide 0.01 μM): 100.6 ± 1.5%
- Residual activity of elastase (peptide 0.1 μM): 97.0 ± 4.0%
- Residual activity of elastase (peptide 0.2 μM): 100.2 ± 2.0%
- Residual activity of elastase (peptide 0.4 μM): 90.3 ± 0.5%
- Residual activity of elastase (peptide 0.6 μM): 73.5 ± 4.8%
- Residual activity of elastase (peptide 1 μM): 49.4 ± 3.3%
- Residual activity of elastase (peptide 6 μM): 8.4 ± 0.4%
- Residual activity of elastase (peptide 10 μM): 3.6 ± 0.5%
- Residual activity of elastase (peptide 100 μM): 0.1 ± 0.0%
SMILES: CC[C@H](C)[C@@H]1NC(=O)[C@H](CO)NC(=O)[C@H](C)NC(=O)[C@H]([C@@H](C)O)NC(=O)[C@@H](NC(=O)[C@@H](N)CC(C)C)CSSC[C@@H](C(=O)N[C@@H](CCC(N)=O)C(=O)O)NC(=O)[C@H](CCC(N)=O)NC(=O)[C@@H]2CCCN2C(=O)[C@@H]2CCCN2C1=O [EC18] (H-LCTASIPPQCQ-OH; disulfide 2-10; N-terminus and C-terminus assumed)

- Residual activity of elastase (peptide 0.001 μM): 99.9 ± 0.5%
- Residual activity of elastase (peptide 0.01 μM): 99.4 ± 0.1%
- Residual activity of elastase (peptide 0.1 μM): 96.1 ± 0.9%
- Residual activity of elastase (peptide 0.5 μM): 81.2 ± 4.1%
- Residual activity of elastase (peptide 1 μM): 52.1 ± 1.8%
- Residual activity of elastase (peptide 2 μM): 29.8 ± 0.8%
- Residual activity of elastase (peptide 4 μM): 15.5 ± 0.3%
- Residual activity of elastase (peptide 10 μM): 5.4 ± 0.3%
- Residual activity of elastase (peptide 100 μM): 0.2 ± 0.1%
- Residual activity of elastase (peptide 1000 μM): 0.0 ± 0.0%
- Ki (read-out: Ki): 0.33 µM
SMILES: CC[C@H](C)[C@H](N)C(=O)N[C@H]1CSSC[C@@H](C(=O)N[C@@H](CCC(N)=O)C(=O)O)NC(=O)[C@H](CCC(N)=O)NC(=O)[C@@H]2CCCN2C(=O)[C@@H]2CCCN2C(=O)[C@H]([C@@H](C)CC)NC(=O)[C@H](CO)NC(=O)[C@H](C)NC(=O)[C@H]([C@@H](C)O)NC1=O [EC19] (H-ICTASIPPQCQ-OH; disulfide 2-10; N-terminus and C-terminus assumed)
